Source: ChEMBL document CHEMBL1201862, “PubChem BioAssay data set” (2004)
“And” between values parts separate entries of the source, which are not always exact repeats. Identical values can stand only once.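 Step 1: Grow cells in 96-well plates. Step 2: Expose to compound for 48 hours at 5 concentrations. Step 3: Interpolate endpoints linearly; if unreached, use highest concentration. At the GI50, growth is halved.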 The source made the active and inactive calls. No stated cut-off is given here; in the data, active = GI50 up to about 1.1 µM and inactive = higher.

Experiments:
Test in all cases: growth of human tumour cells (NCI), 48 h
A549 = test system: A549
OVCAR-8 = test system: OVCAR-8
EKVX = test system: EKVX
A498 = test system: A498
T47D = test system: T47D
MDA-N = test system: MDA-N
CCRF-CEM = test system: CCRF-CEM
SK-MEL-5 = test system: SK-MEL-5
PC-3 = test system: PC-3
IGROV-1 = test system: IGROV-1
Hs-578T = test system: Hs-578T
UACC-62 = test system: UACC-62
OVCAR-4 = test system: OVCAR-4
SF-539 = test system: SF-539
HCC 2998 = test system: HCC 2998
NCI-H522 = test system: NCI-H522
HOP-92 = test system: HOP-92
NCI/ADR-RES = test system: NCI/ADR-RES
OVCAR-5 = test system: OVCAR-5

Measured: GI50

CC(=O)OCC1OC(n2c(C)c(C)cc(C#N)c2=S)C(OC(C)=O)C(OC(C)=O)C1OC(C)=O (stereo not given)
inactive: A549 > 100 µM | OVCAR-8 > 100 µM | EKVX > 100 µM | A498 > 100 µM | T47D > 100 µM | MDA-N > 100 µM | CCRF-CEM > 10 µM | SK-MEL-5 > 100 µM | PC-3 > 100 µM | IGROV-1 > 100 µM | Hs-578T > 100 µM | UACC-62 65.2 µM | OVCAR-4 > 100 µM | SF-539 > 100 µM | HCC 2998 > 100 µM | NCI-H522 > 100 µM and 52.4 µM

C=Cn1c([N+](=O)[O-])cnc1/C=C/c1ccc(C(=O)OCCN2CCOCC2)cc1
inactive: A549 > 100 µM | HOP-92 > 100 µM | OVCAR-8 > 100 µM | EKVX > 100 µM | A498 75.5 µM | NCI/ADR-RES > 100 µM | OVCAR-5 > 100 µM | T47D > 100 µM | CCRF-CEM > 100 µM | SK-MEL-5 51.9 µM | PC-3 > 100 µM | IGROV-1 > 100 µM | Hs-578T 88.1 µM | UACC-62 > 100 µM | OVCAR-4 > 100 µM | SF-539 > 100 µM | NCI-H522 > 100 µM

COc1cc([C@H]2CC(=O)C[C@H](c3cc(OC)c(OC)c(OC)c3)C23C(=O)c2ccccc2C3=O)cc(OC)c1OC
inactive: A549 > 100 µM | HOP-92 33.6 µM | OVCAR-8 40 µM | EKVX > 100 µM | NCI/ADR-RES > 100 µM | OVCAR-5 > 100 µM | T47D > 100 µM | SK-MEL-5 > 100 µM | PC-3 > 100 µM | IGROV-1 > 100 µM | Hs-578T 46.6 µM | UACC-62 43.1 µM | SF-539 45.7 µM | HCC 2998 > 100 µM | NCI-H522 25 µM

CCCCCC(=O)NC(=S)Nc1nnn[nH]1
inactive: A549 > 100 µM | HOP-92 > 100 µM | EKVX > 100 µM | A498 > 100 µM | OVCAR-5 > 100 µM | T47D > 100 µM | MDA-N > 100 µM | CCRF-CEM > 100 µM | SK-MEL-5 > 100 µM | PC-3 > 100 µM | IGROV-1 > 100 µM | Hs-578T > 100 µM | UACC-62 > 100 µM | OVCAR-4 > 100 µM | SF-539 > 100 µM | HCC 2998 > 100 µM | NCI-H522 > 100 µM

Oc1ccc2c3c1OC1c4[nH]ncc4C[C@H]4[C@@H](C2)N(CC2CC2)CC[C@]314 (stereo not given in full)
inactive: A549 > 100 µM | HOP-92 > 100 µM | OVCAR-8 > 100 µM | EKVX > 100 µM | NCI/ADR-RES > 100 µM | OVCAR-5 > 100 µM | T47D > 100 µM | MDA-N > 100 µM | CCRF-CEM > 100 µM | SK-MEL-5 > 100 µM | PC-3 > 100 µM | IGROV-1 > 100 µM | Hs-578T > 100 µM | UACC-62 > 100 µM | OVCAR-4 > 100 µM | HCC 2998 > 100 µM | NCI-H522 > 100 µM

CC(=O)C(CN1C(=O)c2ccccc2C1=O)C(C)=O
inactive: A549 > 100 µM | HOP-92 > 100 µM | OVCAR-8 > 100 µM | EKVX > 100 µM | A498 > 100 µM | OVCAR-5 > 100 µM | T47D > 100 µM | MDA-N > 100 µM | SK-MEL-5 > 100 µM | PC-3 > 100 µM | IGROV-1 > 100 µM | Hs-578T > 100 µM | UACC-62 > 100 µM | OVCAR-4 > 100 µM | SF-539 > 100 µM | HCC 2998 > 100 µM | NCI-H522 > 100 µM

N#C/C=C\c1ccc(-c2cc(C(F)(F)F)cc(C(F)(F)F)c2)o1
inactive: A549 91.6 µM | HOP-92 20.7 µM | OVCAR-8 23 µM | EKVX 34.1 µM | A498 26.5 µM | NCI/ADR-RES 41.6 µM | OVCAR-5 > 100 µM | MDA-N 22 µM | CCRF-CEM 47 µM | SK-MEL-5 14.9 µM | PC-3 > 100 µM | IGROV-1 47.2 µM | Hs-578T 18.4 µM | UACC-62 23.3 µM | OVCAR-4 91.8 µM | SF-539 10 µM | HCC 2998 21.6 µM | NCI-H522 48 µM

N#Cc1ccccc1C#C/C=C\C#Cc1ccccn1
inactive: A549 19.8 µM | HOP-92 26.9 µM | OVCAR-8 13.1 µM | EKVX 22.9 µM | NCI/ADR-RES 16.6 µM | OVCAR-5 28.6 µM | T47D 20.8 µM | CCRF-CEM 36.5 µM | SK-MEL-5 2.99 µM | PC-3 13.7 µM | IGROV-1 17 µM | Hs-578T 16.4 µM | UACC-62 15.3 µM | OVCAR-4 75.9 µM | SF-539 20.5 µM | HCC 2998 14.5 µM

C/C=C1\CN2CCC34c5ccccc5N(C)C35OCC4(C(=O)OC)C1CC25 (stereo not given)
inactive: A549 61.4 µM | HOP-92 28.6 µM | EKVX 77.1 µM | A498 > 100 µM | OVCAR-5 > 100 µM | T47D 28.8 µM | MDA-N 46.5 µM | CCRF-CEM 42.7 µM | SK-MEL-5 18.4 µM | PC-3 27.9 µM | IGROV-1 41.6 µM | Hs-578T 54.8 µM | UACC-62 61 µM | OVCAR-4 51.2 µM | SF-539 83 µM | HCC 2998 14 µM | NCI-H522 47.8 µM
